Assay results reported in publication PMC6832836 (Toxins, 2019).

How the values were obtained:
USTB-05-A = settings: initial NOD 13.7 mg L^−1; CE protein 158 mg L^−1; PBS; 30 °C, 200 rpm; 12 h to 24 h; HPLC-UV 238 nm
[1] = system: CE of recombinant pET30a(+)/BL21(DE3); format: in vitro ADME, E. coli; settings: CE of pET30a(+)/BL21(DE3) added at 12 h; PBS; 30 °C; HPLC-UV 238 nm; Figure S1
Procedure: The experiments were carried out with five treatments as following: • Control groups for treatment A and treatment C: the CEs of recombinant bacteria pGEX-4T-1/BL21(DE3) without protein USTB-05-A and recombinant bacteria pET30a(+)/BL21(DE3) without protein USTB-05-C were added into two tubes with PBS containing NOD, respectively. • Treatment A: the CE of recombinant bacteria pGEX-4T-1/USTB-05-A/BL21(DE3) containing crude protein USTB-05-A was added into PBS containing NOD. • Treatment C: the CE of recombinant bacteria pET30a(+)/USTB-05-C/BL21(DE3) containing crude protein USTB-05-C was added into PBS containing NOD. • Treatment AC: at 0 h, the CE containing crude protein USTB-05-A was added into PBS containing NOD. At 12 h, the CE containing crude protein USTB-05-C was added to the above solution. • Control group for treatment A and treatment C: at 0 h, the CE containing crude protein USTB-05-A was added into the test tubes with PBS containing NOD. At 12 h, the CE of pET30a(+)/BL21(DE3) without protein USTB-05-C was added to the above solution. […]
The concentration of NOD was detected by high performance liquid chromatography (HPLC) (LC10ATVP, Shimadzu Co., Ltd., Tokyo, Japan) with a UV diode array detector at 238 nm. […] The spectra of NOD and its biodegradation products were detected at the time of HPLC analysis.

USTB-05-C = settings: CE protein 165 mg L^−1 added at 12 h; followed from 13 h until 24 h; PBS; 30 °C, 200 rpm; HPLC-UV 238 nm
[2] = system: MlrA point mutants H260A and E265A; settings: cited from earlier work
USTB-05-A mutants = settings: cited from earlier work
[3] = system: cell-free extract (CE) of Sphingopyxis sp. USTB-05; settings: cited from earlier work

In the case of `C/C=C(/C(=O)N[C@@H](C(=O)O)[C@H](C)C(=O)N[C@@H](CCCNC(=N)N)C(=O)O)N(C)C(=O)CC[C@@H](NC(=O)[C@@H](C)[C@@H](N)/C=C/C(C)=C/[C@H](C)[C@H](Cc1ccccc1)OC)C(=O)O` [product A], the “peaks after the first 12 h until 24 h with CE containing USTB-05-A only (treatment A)” value (USTB-05-A) is reported as “remained constant”, the “concentration of product A with control CE without USTB-05-C (control group of treatment AC)” value [1] is reported as “constant” and the “change of product A peak after addition of CE containing USTB-05-C (treatment AC)” value (USTB-05-C) is reported as “decreased and disappeared”.

In the case of MC-LR, the “MC-LR biodegradation by MlrA point mutants H260A and E265A” value [2] is listed as “no activity”, the “MC-LR biodegradation by N264A mutant” value (USTB-05-A mutants) is listed as “significant decrease in MlrA activity” and the “MC-LR biodegradation by W176A and W201A mutants” value (USTB-05-A mutants) is listed as “decrease in the reaction rate to some extent”. The “MC-LR biodegradation by point mutants E172A, H205A and H260A” value (USTB-05-A mutants) was “complete loss of enzymatic activity” and the “time to complete biodegradation by CE” value [3] was at most 3 h.

For MC-YR, the “time to complete elimination by CE” value [3] is given as at most 10 h.
